From article PMC3951875 (Bioorganic & medicinal chemistry letters, 2014)

Columns and labels:
[1] = Chemical stability as a solution; type: physicochemical; details: both DMSO-based and aqueous
[2] = Biological stability in mouse plasma; type: in vitro ADME
hERG channel = hERG channel (Homo sapiens, UniProt Q12809); assay: hERG channel inhibition; type: biochemical; details: @ 25 μM; < 5% at all tested concentrations (0.008-25.0 μM)
[3] = Microsomal stability, mouse; type: in vitro ADME; details: mouse microsomes
[4] = Microsomal stability, rat; type: in vitro ADME; details: rat microsomes
[5] = Microsomal stability, human; type: in vitro ADME; details: human microsomes
Exposure = type: in vivo; details: for CO: IV, dose 0.03 mg, av. weight 27 g; for AUC / Cmax / Tmax / half-life: in vivo, 0.03 mg
Caco2 = assay: PAMPA and Caco2 permeability analyses; type: in vitro ADME; details: data not shown
αIIbβ3 receptor [6] = target: T1, αIIbβ3 receptor (Homo sapiens, UniProt P05106+P08514); assay: Platelet aggregation; type: cell-based
T1 sequence (P08514 32-887 limits assumed): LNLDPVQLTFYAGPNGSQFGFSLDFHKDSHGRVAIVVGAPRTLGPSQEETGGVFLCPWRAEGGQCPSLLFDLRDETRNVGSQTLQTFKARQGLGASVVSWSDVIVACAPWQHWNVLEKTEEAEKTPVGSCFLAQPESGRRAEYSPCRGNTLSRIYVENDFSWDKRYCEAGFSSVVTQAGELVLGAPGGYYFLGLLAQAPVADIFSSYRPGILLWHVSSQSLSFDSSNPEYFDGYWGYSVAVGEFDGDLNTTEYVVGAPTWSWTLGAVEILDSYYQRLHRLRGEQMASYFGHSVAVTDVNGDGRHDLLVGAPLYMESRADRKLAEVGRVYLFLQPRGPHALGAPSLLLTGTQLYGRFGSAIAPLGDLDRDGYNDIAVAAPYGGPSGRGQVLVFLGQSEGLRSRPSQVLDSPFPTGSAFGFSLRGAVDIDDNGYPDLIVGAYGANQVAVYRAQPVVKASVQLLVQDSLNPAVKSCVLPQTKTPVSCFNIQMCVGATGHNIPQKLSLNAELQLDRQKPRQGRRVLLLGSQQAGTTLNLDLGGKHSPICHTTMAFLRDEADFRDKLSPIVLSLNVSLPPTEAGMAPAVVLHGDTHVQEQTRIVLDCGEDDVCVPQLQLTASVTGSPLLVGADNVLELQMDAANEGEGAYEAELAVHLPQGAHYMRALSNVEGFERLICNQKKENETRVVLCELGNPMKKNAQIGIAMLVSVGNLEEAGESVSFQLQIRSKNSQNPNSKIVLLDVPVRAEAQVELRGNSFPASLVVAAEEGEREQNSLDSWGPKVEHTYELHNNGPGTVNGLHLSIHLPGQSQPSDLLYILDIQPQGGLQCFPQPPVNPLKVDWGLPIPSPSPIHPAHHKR
T1 sequence (P08514 891-1039 partner limits assumed): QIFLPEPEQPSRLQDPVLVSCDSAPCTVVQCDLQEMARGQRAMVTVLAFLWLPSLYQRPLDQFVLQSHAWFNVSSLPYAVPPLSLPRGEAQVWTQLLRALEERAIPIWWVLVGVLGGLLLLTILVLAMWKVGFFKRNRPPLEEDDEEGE
T1 sequence (P05106 27-788): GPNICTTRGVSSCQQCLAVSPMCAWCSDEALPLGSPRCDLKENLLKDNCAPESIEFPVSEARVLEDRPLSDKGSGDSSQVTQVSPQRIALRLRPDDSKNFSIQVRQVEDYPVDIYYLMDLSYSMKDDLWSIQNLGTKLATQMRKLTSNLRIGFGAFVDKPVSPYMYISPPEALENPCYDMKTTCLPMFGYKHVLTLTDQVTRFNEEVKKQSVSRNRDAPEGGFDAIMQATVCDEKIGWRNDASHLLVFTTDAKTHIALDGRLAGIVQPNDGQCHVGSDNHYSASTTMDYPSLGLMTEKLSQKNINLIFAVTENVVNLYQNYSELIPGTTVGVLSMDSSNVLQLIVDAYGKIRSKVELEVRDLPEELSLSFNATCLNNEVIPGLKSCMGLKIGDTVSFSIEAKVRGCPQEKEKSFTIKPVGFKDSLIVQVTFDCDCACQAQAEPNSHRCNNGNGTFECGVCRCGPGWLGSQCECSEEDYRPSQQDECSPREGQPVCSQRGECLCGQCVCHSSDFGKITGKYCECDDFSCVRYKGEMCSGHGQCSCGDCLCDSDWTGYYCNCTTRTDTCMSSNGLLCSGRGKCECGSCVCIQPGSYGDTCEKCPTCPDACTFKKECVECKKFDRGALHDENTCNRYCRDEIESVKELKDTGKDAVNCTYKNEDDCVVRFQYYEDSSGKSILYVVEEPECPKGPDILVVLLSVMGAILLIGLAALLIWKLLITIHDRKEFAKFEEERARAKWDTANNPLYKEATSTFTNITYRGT

Long-term solubilization = type: physicochemical
phospholipidosis = assay: Drug-induced phospholipidosis; type: cell-based; details: data not shown
αVβ3 receptor = αVβ3 receptor (Homo sapiens, UniProt P05106+P06756); assay: Activity versus the αVβ3 receptor; details: manuscript in preparation
αVβ3 receptor, sequence (P06756 31-889 limits assumed): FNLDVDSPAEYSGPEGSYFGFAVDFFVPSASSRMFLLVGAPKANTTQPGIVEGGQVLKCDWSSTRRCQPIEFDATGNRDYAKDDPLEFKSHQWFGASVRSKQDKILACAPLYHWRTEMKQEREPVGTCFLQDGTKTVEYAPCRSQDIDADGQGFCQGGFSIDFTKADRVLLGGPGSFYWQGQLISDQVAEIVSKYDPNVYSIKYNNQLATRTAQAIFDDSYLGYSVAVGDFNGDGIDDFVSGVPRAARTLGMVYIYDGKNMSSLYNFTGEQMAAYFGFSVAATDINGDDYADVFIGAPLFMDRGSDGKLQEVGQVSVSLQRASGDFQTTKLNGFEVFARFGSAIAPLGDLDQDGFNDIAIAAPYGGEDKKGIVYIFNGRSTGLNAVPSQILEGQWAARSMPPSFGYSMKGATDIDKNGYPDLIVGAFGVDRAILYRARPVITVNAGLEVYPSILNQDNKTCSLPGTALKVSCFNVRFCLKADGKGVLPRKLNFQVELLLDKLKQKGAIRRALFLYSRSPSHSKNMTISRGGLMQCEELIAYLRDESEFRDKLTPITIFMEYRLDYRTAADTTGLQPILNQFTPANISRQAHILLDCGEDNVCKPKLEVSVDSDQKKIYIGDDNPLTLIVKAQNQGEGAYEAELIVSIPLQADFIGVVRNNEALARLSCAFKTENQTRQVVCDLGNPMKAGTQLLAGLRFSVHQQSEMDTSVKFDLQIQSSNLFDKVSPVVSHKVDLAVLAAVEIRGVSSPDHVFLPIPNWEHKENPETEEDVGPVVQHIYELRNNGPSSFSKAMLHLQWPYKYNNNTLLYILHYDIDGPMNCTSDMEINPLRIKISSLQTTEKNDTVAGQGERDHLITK
αVβ3 receptor, sequence (P06756 891-1048 partner limits assumed): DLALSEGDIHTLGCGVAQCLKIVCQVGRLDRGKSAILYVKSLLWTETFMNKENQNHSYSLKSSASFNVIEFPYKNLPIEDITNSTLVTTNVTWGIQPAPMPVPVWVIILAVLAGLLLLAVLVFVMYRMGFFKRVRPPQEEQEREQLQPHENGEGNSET
αVβ3 receptor, sequence (P05106 27-788): as the sequence (P05106 27-788) above

αIIbβ3 receptor [7] = target: T1, αIIbβ3 receptor; assay: Priming of the receptor for fibrinogen binding; details: manuscript in preparation
αIIbβ3 receptor [8] = target: T1, αIIbβ3 receptor; assay: β3 conformation by binding of a conformation-specific monoclonal antibody

hERG channel, sequence (Q12809 whole entry): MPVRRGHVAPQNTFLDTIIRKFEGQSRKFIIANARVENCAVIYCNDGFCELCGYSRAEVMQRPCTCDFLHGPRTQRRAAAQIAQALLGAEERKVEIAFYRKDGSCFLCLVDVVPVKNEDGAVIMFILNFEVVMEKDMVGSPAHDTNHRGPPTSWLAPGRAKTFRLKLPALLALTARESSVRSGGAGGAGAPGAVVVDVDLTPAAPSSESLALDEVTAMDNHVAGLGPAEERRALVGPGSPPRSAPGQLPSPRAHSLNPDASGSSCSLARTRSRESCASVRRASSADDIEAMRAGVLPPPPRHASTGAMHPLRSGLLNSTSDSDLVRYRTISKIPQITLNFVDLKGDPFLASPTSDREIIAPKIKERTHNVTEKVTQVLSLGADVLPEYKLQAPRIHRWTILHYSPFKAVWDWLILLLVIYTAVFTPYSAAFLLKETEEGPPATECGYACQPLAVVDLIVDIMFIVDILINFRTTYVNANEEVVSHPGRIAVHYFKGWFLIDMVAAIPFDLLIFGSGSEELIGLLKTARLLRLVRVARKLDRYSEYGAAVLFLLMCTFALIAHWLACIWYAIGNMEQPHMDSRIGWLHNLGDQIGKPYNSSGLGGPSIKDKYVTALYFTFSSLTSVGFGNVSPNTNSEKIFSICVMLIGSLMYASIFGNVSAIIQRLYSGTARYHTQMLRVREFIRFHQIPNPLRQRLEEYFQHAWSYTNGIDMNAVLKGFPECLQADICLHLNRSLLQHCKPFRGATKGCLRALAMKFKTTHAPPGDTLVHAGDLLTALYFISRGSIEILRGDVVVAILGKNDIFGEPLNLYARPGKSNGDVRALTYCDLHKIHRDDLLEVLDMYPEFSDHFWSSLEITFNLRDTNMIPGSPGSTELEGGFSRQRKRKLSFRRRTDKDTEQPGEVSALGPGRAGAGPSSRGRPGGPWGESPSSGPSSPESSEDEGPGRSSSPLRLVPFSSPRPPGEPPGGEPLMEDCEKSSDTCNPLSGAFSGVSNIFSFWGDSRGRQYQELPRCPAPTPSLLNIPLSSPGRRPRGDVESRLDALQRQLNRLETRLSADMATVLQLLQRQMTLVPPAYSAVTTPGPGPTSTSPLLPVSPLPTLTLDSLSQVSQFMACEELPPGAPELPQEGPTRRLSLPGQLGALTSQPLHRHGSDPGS

SMILES	Biological Stability ([2]; 15 min.)	Biological Stability ([2]; 60 min.)	Biological Stability ([2]; 120 min.)	hERG Inhibition (hERG channel) [% @ 25 μM]	CO (Exposure) [µg/mL]	AUC (Exposure; ip) [ng·h/mL]	Cmax (Exposure; ip) [ng/mL]	Tmax (Exposure; ip) [min]	AUC (Exposure; iv) [ng·h/mL]	half-life (Exposure; iv) [min]	PAMPA and Caco2 permeability analyses (Caco2)	other results
NCC(=O)Nc1cc(-c2nn3c(=O)cc(N4CCNCC4)nc3s2)ccn1 [compound 14]												chemical stability as a solution [1]: poor chemical stability
NCC(=O)Nc1cccc(-c2nn3c(=O)cc(N4CCNCC4)nc3s2)c1 [compound 2]	97.5 (15 min.)	93.3 (60 min.)	84.5 (120 min.)	< 5	1.354	45	222	4.8	123	4.2	unlikely that either agent possesses high oral bioavailability	t1/2 [3]: > det. limit (mouse); t1/2 [4]: > det. limit (rat); t1/2 [5]: > det. limit (human)
CCc1nn2c(=O)cc(N3CCNCC3)nc2s1 [compound 1]												IC50 (αIIbβ3 receptor [6]): 4 to 10 µM
NCC(=O)Nc1cncc(-c2nn3c(=O)cc(N4CCNCC4)nc3s2)c1 [compound 13]	100 (15 min.)	99.5 (60 min.)	91.7 (120 min.)	< 5	1.145	87	405	4.8	137	4.2	unlikely that either agent possesses high oral bioavailability	solubility (Long-term solubilization): ≥ 60 mg/mL; induction of phospholipidosis (phospholipidosis): No appreciable induction of phospholipidosis; activity versus the αVβ3 receptor (αVβ3 receptor): does not possess any activity; priming of the receptor for fibrinogen binding (αIIbβ3 receptor [7]): neither primes the receptor for fibrinogen binding; change of β3 conformation (αIIbβ3 receptor [8]): nor changes the β3 conformation
